Test results taken from patent publication US9452185B2, “Mesenchymal stem cells and supports for tissue regeneration, repair and reconstruction” (THE TEXAS A&M UNIVERSITY SYSTEM, priority 2009, dated 2016).
Entries after “also recorded” stand apart in the source; their conditions may differ.

Legend:
hMSCs [1] = assay: Late stage osteogenesis, Alizarin Red S (ARS) staining; type: cell-based, human; settings: for dex-induced biomineralization with simultaneous treatment: 17 days with β-GP, ascorbate and dex; for dex-induced mineralization after pre-treatment: BIO 200 and 800 nM, GW 1.0 and 10.0 μM for 8 days, then 15 days with dex; for biomineralization in the absence of dex: extended incubation
Protocol: Late stage osteogenesis and ARS staining. Mature osteogenic assays were performed in 6 well format as previously described (Gregory et al., 2004, Anal Biochem 329:77-84).
Effect of GSK3β and PPARγ inhibition on late stage osteogenesis. […] Initially, experiments were conducted to examine whether pre-treatment of hMSCs with inhibitors BIO (200 and 800 nM) and GW (1.0 and 10.0 μM) in the presence of β-glycerophosphate (β-GP) and ascorbate for 8 days followed by 15 days in the same media supplemented with dex affected mineralization of the cultures. If BIO or GW function to accelerate the cells through the immature stages of osteogenesis and partially to maturity, hMSCs exposed to these conditions would be expected to respond more rapidly to the steroid-dependent mature osteoblast transition. After differentiation, calcium content was visualized by Alizarin Red S (ARS) staining and the dye was extracted and quantified. At the doses tested, and in a dose-dependent manner, BIO and GW enhanced dex-induced differentiation into biomineralizing osteoblasts (FIG. 21).
The next experiments were performed to examine whether withdrawal of the Wnt stimulus caused by BIO and GW was necessary for the hMSCs to progress to a dex-dependent biomineralizing phenotype. Human MSCs were pre-cultured with BIO and GW in the presence of f3-GP, ascorbate and dex for 17 days. […] Clotted human plasma is a biocompatible and osteoinductive vector for administration of hMSCs

hMSCs [2] = assay: ECM production by hMSC monolayers (nodules, recovered volume, calcium); type: cell-based, human
Protocol: Micro computer aided tomography (μCT) briefly included scanning of identical calvaria over 360° using a 50 kV beam with a camera resolution of 12 μm. Images were captured every 0.4° with flat field correction and frame averaging enabled. Using mock specimens, grayscale ranges were calibrated over intact bone, partially formed bone and radiolucent tissue over a fixed linear range (corresponding to approximately −100 to +1000 Hounsfield units). Axial reconstructions were generated from the scans and quantified using a appropriate CT software. Once again, each reconstruction parameter was identical and performed over a fixed and linear intensity range in each case so as to reproducibly distinguish bone, partial bone and radiolucent tissue. In each case, ring artifact, smoothing, and beam hardening corrections were enabled. Three dimensional renderings for qualitative appraisal were generated using one or more volume software. Measurements of recovered matrix volume were performed using similar parameters, but the beam power was lowered to 30 kV. For extracellular matrix (ECM) production, hMSC monolayers were treated for 8 days with GW9662 or control OBM media in the usual manner described previously. Mineralizing osteogenic media was then added for a further 10 days with changes every 2 days. Hereafter, all volumes refer to a single 150 cm^2 monolayer culture. Monolayers were washed in PBS and frozen at −80° C. to disrupt cell membranes, thawed to ambient temperature and scraped from the culture plate. Recovered cells and ECM were then pelleted by centrifugation (1,800 G) and suspended in 10 mL of lysis buffer consisting of PBS containing 0.1% (v/v) Triton X100, 1 mM MgCl2, 10 μg mL^−1 DNAse I and 10 μg mL^−1 RNAseA. […] Calcium levels in matrices described were determined using an acid hydrolysis ArsenazoIII method previously described by others. […] Colorimetric determination of calcium was performed by addition of Arsenazo III compound and monitoring the change in absorbance at 595 nm using a plate reader.

calvarial defects = assay: Calvarial defect repair, 50 days (x-ray radio-opacity); type: in vivo, nude mice; settings: for repair of cranial lesions (radio-opacity ratio lesioned/contralateral): day 50, 1×10^6 pretreated hMSCs in plasma, further doses day 14, 28, 42
Protocol: Calvarial lesions. MSCs were cultured in the presence of osteogenic base media containing the appropriate inhibitor or vehicle. After 8 days, they were suspended in human plasma and administered to nude mice that had received a circular lesion in the cranium. Subsequent doses of cells were administered by direct injection in plasma/thromboplastin mix.
X-ray imaging and quantification. Cranial bones were imaged by x-ray under anaesthesia. Digital images were be captured on a digital plate and processed on a phosphorimager reader and processed by volume analysis software.
Effects of GSKβ and PPARγ inhibition on repair of an induced cranial defect in mice. Given that BIO and GW accelerated osteogenic differentiation by human MSCs in vitro, experiments were conducted to test whether the treated hMSCs could repair a critical bone defect in vivo. Human MSCs were cultured in the presence of osteogenic medium lacking dex, but containing BIO (200 and 800 nM) or GW (1.0 and 10.0 μM). Calvarial lesions were generated in nude mice and 1×10^6 hMSCs, mixed with human plasma were applied followed by thromboplastin to initiate gelling. The scalp was sutured and the animals were allowed to heal. Initially, short-duration experiments were performed to monitor distribution of the hMSCs, and to ensure the cells had survived the implantation process. GFP-labeled hMSCs were administered and mice were sacrificed after 24 h. Upon histological analysis, a substantial number of GFP-labeled, healthy hMSCs had formed a thick layer over the injury and adjacent bone tissue (FIG. 24A, 24B). The hMSCs could be readily detected with an antibody for membrane localized human β-2 microglobulin (FIG. 24C, 24D). Robust antibody-detection of unmanipulated hMSCs, rather than lentiviral labeling was favored in long term experiments because very low passage hMSCs could be utilized, rather than genetically tagged preparations that had undergone a number of passages. Long term experiments were performed for 50 days with further doses of hMSCs administered at day 14, 28 and 42 by direct injection of a plasma:hMSC mixture under the scalp (FIG. 25A). At day 50, the crania were explanted and x-ray images of the calvarial lesions were taken. The digitized images were then analysed densitometrically to quantify the degree of bone accrual (FIG. 25B). The lesioned side was compared with the contralateral side and data were expressed as the ratio of radio-opacity on the lesioned side to the contralateral side. […] When the sections were stained with anti-β-2 microglobulin, isolated clusters of hMSCs from only control and GW groups were detected (FIGS. 27C and 27D).

SMILES | dex-induced biomineralization with simultaneous treatment (hMSCs [1]) | dex-induced mineralization after pre-treatment (hMSCs [1]) | biomineralization in the absence of dex (hMSCs [1]) | calcium content in recovered ECM (hMSCs [2]; GW9662 vs DMSO) | volume of ECM recovered (hMSCs [2]; GW9662 vs vehicle treated cells) | ECM nodules by phase contrast microscopy (hMSCs [2]; hMSC cultures, GW9662 treatment) | improvement in healing compared with controls (calvarial defects; MSCs treated with GW9662 applied to calvaria bone defect) | lesion healing (calvarial defects; after 50 days of repeated cell administration) | repair of cranial lesions (radio-opacity ratio lesioned/contralateral) (calvarial defects; listed as GW) | repair of cranial lesions (radio-opacity ratio lesioned/contralateral) (calvarial defects)
O=C(Nc1ccccc1)c1cc([N+](=O)[O-])ccc1Cl [GW9662, 2-chloro-5-nitro-N-phenyl-benzamide] | enhanced dex-induced biomineralization | enhanced | did not induce biomineralization | elevated calcium levels; also recorded: substantially more calcium mineral than controls | greater volume of ECM; also recorded: substantial increase in the yield | distinct formation of nodules; also recorded: increased | 2-3 fold | about 60% | significantly improved; also recorded: profoundly improved healing | –
O=C1Nc2cc(Br)ccc2/C1=C1/Nc2ccccc2/C1=N\O [BIO, bromo-indirubin-3′-mono-oxime] | enhanced dex-induced biomineralization | enhanced | did not induce biomineralization | – | – | – | – | – | – | no significant sign of bone repair
